Experimental data reported in ChEMBL document CHEMBL5046262, “Fragment-Based Discovery of MRTX1719, a Synthetic Lethal Inhibitor of the PRMT5•MTA Complex for the Treatment of MTAP-Deleted Cancers” (J Med Chem, 2022).

Assays:
[1] = Efflux ratio of apparent permeability across basolateral to apical side over apical to basolateral side in dog MDCKII-MDR1 cells at 2 uM incubated for 2.5 hrs by LC-MS/MS analysis; assay type: ADME, cell-based, Canis lupus familiaris, MDCK-MDR1; conditions: MDCK-MDR1
[2] = molecular target: T1, Protein arginine N-methyltransferase 5 (Homo sapiens, UniProt O14744); test: Binding affinity to MTA-bound human PRMT5 assessed as dissociation constant by SPR assay
[3] = molecular target: T1, Protein arginine N-methyltransferase 5
[4] = molecular target: T1, Protein arginine N-methyltransferase 5; remark: listed apart in the source
[5] = Apparent permeability across apical to basolateral side in dog MDCKII-MDR1 cells at 2 uM incubated for 2.5 hrs by LC-MS/MS analysis; assay type: ADME, cell-based, Canis lupus familiaris, MDCK-MDR1; conditions: for Papp A→B at 2.5 h, 2 µM: MDCK-MDR1
[6] = Cmax in CD-1 mouse at 30 mg/kg, po administered via gavage measured upto 24 hrs by LC-MS/MS analysis; assay type: ADME, organism-based; parameters: route oral, dose 30 mg/kg, time <=24; conditions: in vivo
[7] = Volume of distribution at steady state in CD-1 mouse at 3 mg/kg, iv measured upto 24 hrs by LC-MS/MS analysis; assay type: ADME, organism-based; conditions: in vivo, read-out: Vdss
[8] = tested on: Lu-99 cell line; test: Antitumor activity against MTAP/CDKN2A deleted human Lu-99 cells xenografted in Hsd athymic nude mouse assessed as tumor growth inhibition at 50 mg/kg, po qd administered via oral gavage for 21 days by caliper method relative to control; assay type: functional; conditions: Lu-99, po, 504 h, time 21 day, read-out: TGI
[9] = Oral bioavailability in beagle dog at 10 mg/kg administered via gavage measured upto 24 hrs by LC-MS/MS analysis; assay type: ADME, organism-based, Canis lupus familiaris; conditions: in vivo
[10] = tested on: Lu-99 cell line; test: Antitumor activity against MTAP/CDKN2A deleted human Lu-99 cells xenografted in Hsd athymic nude mouse assessed as tumor growth inhibition at 100 mg/kg, po qd administered via oral gavage for 21 days by caliper method relative to control; assay type: functional; conditions: Lu-99, po, 504 h, time 21 day, read-out: TGI
[11] = Half life in CD-1 mouse at 3 mg/kg, iv measured upto 24 hrs by LC-MS/MS analysis; assay type: ADME, organism-based; conditions: in vivo
[12] = Toxicity in Hsd athymic nude mouse xenografted with MTAP/CDKN2A deleted human Lu-99 cells assessed as effect on body weight at 12.5 to 100 mg/kg, po qd administered via oral gavage for 21 days; assay type: organism-based, Lu-99 cell line; conditions: in vivo, 504 h, dose 12.5-100 mg/kg, time 21 day
[13] = Total clearance in cynomolgus monkey at 2 mg/kg, iv measured upto 24 hrs by LC-MS/MS analysis; assay type: ADME, organism-based, Macaca fascicularis; conditions: in vivo
[14] = Oral bioavailability in CD-1 mouse at 30 mg/kg administered via gavage measured upto 24 hrs by LC-MS/MS analysis; assay type: ADME, organism-based; conditions: in vivo
[15] = Total clearance in beagle dog at 2 mg/kg, iv measured upto 24 hrs by LC-MS/MS analysis; assay type: ADME, organism-based, Canis lupus familiaris; conditions: in vivo
[16] = AUCinfinity in beagle dog at 10 mg/kg, po administered via gavage measured upto 24 hrs by LC-MS/MS analysis; assay type: ADME, organism-based, Canis lupus familiaris; parameters: route oral, dose 10 mg/kg, time <=24; conditions: in vivo
[17] = tested on: Lu-99 cell line; test: Antitumor activity against MTAP/CDKN2A deleted human Lu-99 cells xenografted in Hsd athymic nude mouse assessed as reduction in PRMT5 mediated SDMA level in tumor at 12.5 to 100 mg/kg, po qd administered via oral gavage for 21 days relative to control; assay type: functional; parameters: scale not given: the % may be the effect or the level left; conditions: dose 12.5-100 mg/kg, time 21 day
[18] = Oral bioavailability in cynomolgus monkey at 10 mg/kg administered via gavage measured upto 24 hrs by LC-MS/MS analysis; assay type: ADME, organism-based, Macaca fascicularis; conditions: in vivo
[19] = Half life in cynomolgus monkey at 2 mg/kg, iv measured upto 24 hrs by LC-MS/MS analysis; assay type: ADME, organism-based, Macaca fascicularis; conditions: in vivo
[20] = Total clearance in CD-1 mouse at 3 mg/kg, iv measured upto 24 hrs by LC-MS/MS analysis; assay type: ADME, organism-based; conditions: in vivo
[21] = Cmax in beagle dog at 10 mg/kg, po administered via gavage measured upto 24 hrs by LC-MS/MS analysis; assay type: ADME, organism-based, Canis lupus familiaris; parameters: route oral, dose 10 mg/kg, time <=24; conditions: in vivo
[22] = Volume of distribution at steady state in cynomolgus monkey at 2 mg/kg, iv measured upto 24 hrs by LC-MS/MS analysis; assay type: ADME, organism-based, Macaca fascicularis; conditions: in vivo, read-out: Vdss
[23] = Intrinsic clearance in human hepatocytes; assay type: ADME, cell-based, Hepatocyte; conditions: read-out: CLH
[24] = Volume of distribution at steady state in beagle dog at 2 mg/kg, iv measured upto 24 hrs by LC-MS/MS analysis; assay type: ADME, organism-based, Canis lupus familiaris; conditions: in vivo, read-out: Vdss
[25] = Half life in beagle dog at 2 mg/kg, iv measured upto 24 hrs by LC-MS/MS analysis; assay type: ADME, organism-based, Canis lupus familiaris; conditions: in vivo
[26] = Inhibition of PRMT5 C449S mutant/MEP50 (unknown origin) using Histone H2A as substrate; parameters: species or system Homo sapiens
[27] = AUCinfinity in CD-1 mouse at 30 mg/kg, po administered via gavage measured upto 24 hrs by LC-MS/MS analysis; assay type: ADME, organism-based; parameters: route oral, dose 30 mg/kg, time <=24; conditions: in vivo
[28] = molecular target: T1, Protein arginine N-methyltransferase 5; test: Inhibition of PRMT5 methyltransferase activity in MTAP knockout human HCT-116 cells assessed as inhibition of PRMT5- mediated SDMA modification level incubated for 96 hrs by Western blot analysis; assay type: cell-based
[29] = tested on: HCT-116; test: Antiproliferative activity against MTAP knockout human HCT-116 cells assessed as reduction in cell viability incubated for 5 days followed by replacement with fresh medium containing compound and measured after 5 days by CTG assay; assay type: functional, cell-based
[30] = molecular target: T1, Protein arginine N-methyltransferase 5; test: Inhibition of PRMT5 methyltransferase activity in human HCT-116 cells expressing wild type MTAP assessed as inhibition of PRMT5- mediated SDMA modification level incubated for 96 hrs by Western blot analysis; assay type: cell-based
[31] = Selectivity ratio of IC50 for antiproliferative activity against human HCT-116 cells expressing wild type MTAP to IC50 for antiproliferative activity against MTAP knockout human HCT-116 cells; assay type: functional
[32] = species: Homo sapiens; test: Selectivity ratio of IC50 for inhibition of PRMT5 methyltransferase activity in human HCT-116 cells expressing wild type MTAP to IC50 for nhibition of PRMT5 methyltransferase activity in MTAP knockout human HCT-116 cells; assay type: cell-based
[33] = tested on: HCT-116; test: Antiproliferative activity against human HCT-116 cells expressing wild type MTAP assessed as reduction in cell viability incubated for 5 days followed by replacement with fresh medium containing compound and measured after 5 days by CTG assay; assay type: functional, cell-based
[34] = Intrinsic clearance in mouse hepatocytes; assay type: ADME, cell-based, Hepatocyte; conditions: read-out: CLH
[35] = Lipophilicity, logD of the compound at pH 7.4; assay type: physicochemical; conditions: buffer

T1 sequence (O14744 whole entry): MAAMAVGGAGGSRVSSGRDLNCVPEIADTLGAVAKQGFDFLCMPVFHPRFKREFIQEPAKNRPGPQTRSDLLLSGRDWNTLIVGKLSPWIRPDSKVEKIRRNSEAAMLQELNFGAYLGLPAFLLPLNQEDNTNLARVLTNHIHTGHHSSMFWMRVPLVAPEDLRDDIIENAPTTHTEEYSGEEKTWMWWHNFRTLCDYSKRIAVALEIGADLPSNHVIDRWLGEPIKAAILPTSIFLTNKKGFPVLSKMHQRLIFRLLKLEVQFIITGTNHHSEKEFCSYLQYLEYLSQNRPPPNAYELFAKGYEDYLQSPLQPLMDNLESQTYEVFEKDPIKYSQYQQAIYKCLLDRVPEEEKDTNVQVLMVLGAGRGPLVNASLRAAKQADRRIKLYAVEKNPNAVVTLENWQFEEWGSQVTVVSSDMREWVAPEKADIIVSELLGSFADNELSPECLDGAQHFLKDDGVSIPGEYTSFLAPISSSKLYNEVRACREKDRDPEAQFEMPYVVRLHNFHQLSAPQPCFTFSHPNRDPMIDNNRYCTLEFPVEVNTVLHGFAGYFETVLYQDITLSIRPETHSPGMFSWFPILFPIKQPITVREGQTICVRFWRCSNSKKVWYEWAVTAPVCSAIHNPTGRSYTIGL

In the case of `NCc1nnc(O)c2ccc(-c3ccccc3)cc12`, the efflux ratio at 2.5 h, 2 µM [1] is reported as 0.8, the Kd [2] is reported as 1620 nM and the IC50 [3] is reported as 14500 nM. It also gave an IC50 [4] of 4300 nM and a Papp A→B at 2.5 h, 2 µM [5] of 16 ×10⁻⁶ cm/s.
Work on `Cn1ncc(-c2ccc3c(=O)[nH]nc(CN)c3c2)c1-c1c(F)c(Cl)cc(OC2CC2)c1C#N` yielded a Cmax [6] of 1160 ng/mL, a Vd [7] of 6.3 L/kg and an inhibition in vivo at 50 mg/kg [8] of 86%. The bioavailability [9] was 59%, the inhibition in vivo at 100 mg/kg [10] was 88% and the half-life [11] was 1.5 h. The Activity [12] was “Non-Toxic”, the clearance [13] was 15 mL/min/kg and the bioavailability [14] was 80%. It also gave a clearance [15] of 14 mL/min/kg, an AUC(0-inf) [16] of 7470 ng·h/mL and an Activity [17] of 86%. The bioavailability [18] was 41%, the half-life [19] was 6.1 h and the clearance [20] was 83 mL/min/kg. The Cmax [21] was 1400 ng/mL, the Vd [22] was 2.3 L/kg and the CLint scaled [23] was < 18 mL/min/kg. It also gave a Vd [24] of 3.4 L/kg, a half-life [25] of 4.8 h and an IC50 [26] of 717 nM. The AUC(0-inf) [27] was 4850 ng·h/mL, the Papp A→B at 2.5 h, 2 µM [5] was < 0.2 ×10⁻⁶ cm/s and the Papp ([5]; mdck-mdr1, 2.5 h, 2 µM, 2.5 h) was 0.3 ×10⁻⁶ cm/s.
With `Cn1ncc(-c2ccc3c(=O)[nH]nc(CN)c3c2)c1-c1cccc(OC2CC2)c1C#N` the efflux ratio at 2.5 h, 2 µM [1] was 104, the IC50 [28] was 34 nM and the IC50 [29] was 129 nM. For the same compound, the IC50 [30] was 6550 nM, the “Ratio IC50” value [31] was 53 and the Ratio IC50 [32] was 193. The IC50 [33] was 6820 nM, the CLint scaled [34] was 237 mL/min/kg and the IC50 [4] was 1000 nM. The CLint scaled [23] was < 18 mL/min/kg and the Papp A→B at 2.5 h, 2 µM [5] was 0.3 ×10⁻⁶ cm/s.
Work on `Cn1ncc(-c2ccc3c(=O)[nH]nc(CN)c3c2)c1-c1cc(Cl)cc(OC2CC2)c1C#N` yielded an efflux ratio at 2.5 h, 2 µM [1] of 121, an IC50 [28] of 8 nM and an IC50 [29] of 41 nM. For the same compound, the IC50 [30] was 834 nM, the “Ratio IC50” value [31] was 24 and the IC50 [33] was 990 nM. For the same compound, the CLint scaled [34] was 336 mL/min/kg, the CLint scaled [23] was < 18 mL/min/kg and the Papp A→B at 2.5 h, 2 µM [5] was 0.2 ×10⁻⁶ cm/s.
In the case of `Cn1cc(-c2ccc3c(=O)[nH]nc(CN)c3c2)cn1`, the logD [35] is reported as -0.5 and the Papp A→B at 2.5 h, 2 µM [5] is reported as 2.3 ×10⁻⁶ cm/s.
